Source: ChEMBL document CHEMBL5346977, “Discovery of Novel d-(+)-Biotin-Conjugated Resorcinol Dibenzyl Ether-Based PD-L1 Inhibitors for Targeted Cancer Immunotherapy” (J Med Chem, 2023)
The source made the active and inactive calls. No cut-off for these calls is given here.

Key:
[1] = molecular target: Programmed cell death 1 ligand 1 (Homo sapiens, UniProt Q9NZQ7); assay: Binding affinity to human PD-L1 assessed as dissociation constant by SPR analysis
[2] = Drug concentration in lung of C57BL/6 mouse implanted with mouse B16-F10 cells at 50 mg/kg, ip measured after 4 hrs by UPLC-MS/MS analysis; type: ADME, organism-based; conditions: read-out: Ct
[3] = Drug concentration in liver of C57BL/6 mouse implanted with mouse B16-F10 cells at 50 mg/kg, ip measured after 2 hrs by UPLC-MS/MS analysis; type: ADME, organism-based; conditions: read-out: Ct
B16-F10 [4] = assay: Antitumor activity against mouse B16-F10 cells implanted in allogenic BALB/c mouse assessed as increase in CXCL10 mRNA level in tumor at 50 mg/kg, ip by qPCR analysis; type: functional, organism-based
[5] = Clearance in C57BL/6 mouse at 50 mg/kg, ip measured after 4 hrs by HPLC-MS/MS analysis; type: ADME, organism-based; conditions: in vivo
[6] = Initial drug concentration in C57BL/6 mouse at 50 mg/kg, ip measured after 4 hrs by HPLC-MS/MS analysis; type: ADME, organism-based; conditions: in vivo
[7] = Half-life in C57BL/6 mouse at 50 mg/kg, ip measured after 4 hrs by HPLC-MS/MS analysis; type: ADME, organism-based; conditions: in vivo
[8] = Toxicity in allogenic BALB/c mouse implanted with mouse B16-F10 cells assessed as severe crypt necrosis in colon at 50 mg/kg, ip by H&E staining based analysis; type: organism-based; conditions: in vivo
B16-F10 [9] = assay: Antitumor immunity against mouse B16-F10 cells implanted in allogenic BALB/c mouse assessed as increase in CD3+ CD8+ T cells percentage at 50 mg/kg, ip by flow cytometric analysis; type: functional, organism-based
[10] = Drug concentration in tumor of C57BL/6 mouse implanted with mouse B16-F10 cells at 50 mg/kg, ip measured after 2 hrs by UPLC-MS/MS analysis; type: ADME, organism-based, Neoplasm; conditions: read-out: Ct
[11] = MRT (0 to t) in Sprague-Dawley rat at 1 mg/kg, iv administered as single dose and measured after 48 hrs by HPLC-MS/MS analysis; type: ADME, organism-based; conditions: in vivo
B16-F10 [12] = assay: Antitumor activity against mouse B16-F10 cells implanted in syngeneic C57BL/6 mouse assessed as decrease in tumor volume at 50 mg/kg, ip measured after 12 days relative to control; type: functional; design: scale not given: the % may be the effect or the level left; conditions: time 12 day
[13] = Toxicity in allogenic BALB/c mouse implanted with mouse B16-F10 cells assessed as inflammatory cell infiltration in colon at 50 mg/kg, ip by H&E staining based analysis; type: organism-based; conditions: in vivo
[14] = Clearance in Sprague-Dawley rat at 1 mg/kg, iv administered as single dose and measured after 48 hrs by HPLC-MS/MS analysis; type: ADME, organism-based; conditions: in vivo

Chain of Programmed cell death 1 ligand 1 (Q9NZQ7 whole entry): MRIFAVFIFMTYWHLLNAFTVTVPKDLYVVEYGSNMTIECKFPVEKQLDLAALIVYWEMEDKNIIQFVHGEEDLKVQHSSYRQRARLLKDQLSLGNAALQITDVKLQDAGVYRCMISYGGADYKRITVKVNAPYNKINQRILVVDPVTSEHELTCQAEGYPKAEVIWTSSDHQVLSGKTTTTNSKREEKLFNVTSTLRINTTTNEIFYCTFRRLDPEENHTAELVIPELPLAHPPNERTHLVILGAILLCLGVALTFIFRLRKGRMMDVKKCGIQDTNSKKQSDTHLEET

concentration at 4 h [2]: 143 ng/mL
concentration at 2 h [3]: 1670 ng/mL
CL [5]: 7.353 L/h/kg
C0 [6]: 570.948 µg/L
t1/2 [7]: 14.587 h
concentration at 2 h [10]: 404 ng/mL
MRT last at 48 h [11]: 11.6 h
clearance [14]: 21.7 mL/min/kg
Structure (SMILES): Cc1c(COc2cc(OCc3cccc(C#N)c3)c(CN3CCCCC3C(=O)NCCNC(=O)CCCC[C@@H]3SC[C@@H]4NC(=O)N[C@@H]43)cc2Cl)cccc1-c1ccccc1 (some centres undefined)
Kd [1]: 43.7 nM
Activity (B16-F10 [4]): Active
Activity [8]: Non-Toxic
Activity (B16-F10 [9]): Active
Activity (B16-F10 [12]): 52.6%
Activity [13]: Non-Toxic
